Holding throughout (assay type): cell-based
One test deals with PC3 spheroids. Kind of test: Spheroid growth (3D), PC3. Here is the method: Cell cultures, proliferation assay and spheroid gro wth […]
streptomycin and 2 m M L-glutamine. All cells were regularly tested for mycoplasma contamination. […]
Spheroids were obtained by plating PC3 and 22Rv1 cells in low -adhesion round bottom 96 -well […]
(§1) After seeding, the cells were centrifuged for 10 min at 1200 x g at 4°C. Spheroids were given 48 hours to form after seeding before adding the treatment or the carrier (0.1% DMSO). Medium supplemented with treatment/carrier was changed every 48 hours, for a total of 32 days for 22Rv1 and 16 days for PC3. Each spheroid was imaged in brightfield every day or every other day (after day 20), using a Leica DM IL microscope […]
(§2) equipped with a Leica DFC450C digital camera. The area of each spheroid was measured using ImageJ and the average area for each condition was calculated. The growth rate was analysed using the segmental linear regression algorithm of GraphPad Prism. The appropriateness of the model was evaluated by considering the R square values and the Replicates test (Suppl. Table 6). […]

A further test relates to 22Rv1 spheroids. Kind of test: Spheroid growth (3D), 22Rv1. The method, then:
(§3) Cell cultures, proliferation assay and spheroid gro wth
PC3 and 22Rv1 cells were cultured in RPMI 1640 medium containing 10% FBS, 1% penicillin-streptomycin and 2 m M L-glutamine. All cells were regularly tested for mycoplasma contamination. […]
as §1, with “Spheroids were obtained by plating PC3 and 22Rv1 cells in low -adhesion round bottom 96 -well plates. For 22Rv1, 2500 cells/well were seeded in 200 µl RPMI 1640; for PC3, 250 cells/well were seeded in 200 µl RPMI 1640 supplemented with 1.5% Matrigel. After” for “After”
as §2

In test [1] the test system is 22Rv1 (AR‐positive) PCa cells. Description: 2D proliferation assay (resazurin), 22Rv1. The method, then:
as §3
PC3 and 22Rv1 cells were cultured in RPMI 1640 medium containing 10% FBS, 1% penicillin-streptomycin and 2 m M L-glutamine. All cells were regularly tested for mycoplasma contamination.
For the proliferation assay, cells were counted with a hemocytometer and seeded in triplicates in 96-well plates (4 .5x10^3 cells/well for 22Rv1 and 2.0x103 for PC3) and let adhere overnight at 37°C, 5% CO2. The following day, the medium was replaced with RPMI 1640 containing either the carrier […]
transfected with siRNA for BAZ2A , RLUC or KIF11, as detailed below. The cells were incubated for 1, 3, 6 (PC3) and 9 days (22Rv1) and the medium containing either the carrier or the inhibitors was replaced every 3 day s. Cell proliferation and viability were determined at day 1, 3, 6 and 9 by adding 10% resazurin sodium salt solution (0. 03 mg/ml powder from Sigma -Aldrich) directly into each well and incubating them for 4h at 37°C, 5% CO 2. The absorbance at 570/600 nm was measured using a Varioskan plate reader. The reduction of the resazur in sodium salt was calculated using the formula: (Abs x – Abs 0. 1%DMSO day1)/(Abs 0. 1%DMSO day9 - Abs 0. 1%DMSO day1). The growth rate was analysed using the linear regression algorithm of GraphPad Prism. […]
A general note: Resazurin is reduced to fluorescent resorufin, in cell work by metabolically active cells.

Where [2] appears, read: 3D setting, GSK2801 25 μM, BAZ2‐ICR 25 μM, BI9564 20 μM.

Entries after “also recorded” stand apart in the source; their conditions may differ.

Take `Cn1cc(CCn2cnc(-c3cnn(C)c3)c2-c2ccc(C#N)cc2)cn1` [BAZ2‐ICR]: in the test on PC3 spheroids (setting [2]), the “effect on growth of PC3 spheroids” value is reported as “did not significantly affect PC3 spheroids”. The “slope2 (segmental linear regression of spheroid growth)” value amounted to 77288 with PC3 spheroids (PC3 spheroids, 25 µM, after X0 = day 6) and 10618 in the test on 22Rv1 spheroids (22Rv1 spheroids, 25 µM, after X0 = day 9). Moreover, the “slope1 (segmental linear regression of spheroid growth)” value with PC3 spheroids (PC3 spheroids, 25 µM, before X0 = day 6) is listed as 62282; in the test with 22Rv1 spheroids (22Rv1 spheroids, 25 µM, before X0 = day 9), 17642. In addition, the “effect on growth of 22Rv1 spheroids” value in the test on 22Rv1 spheroids (setting [2]) was “similarly affect the growth of 22Rv1 cells; also recorded: interestingly impacting those deriving from 22Rv1 cells”. Moreover, the “effect on 2D growth of 22Rv1 cells” value in test [1] (2D‐cell culture, 22Rv1) was “did not affect growth; also recorded: but not BAZ2‐ICR, reduces 2D growth”. For the same molecule, the “effect on viability of 22Rv1 cells” value in test [1] (2D‐cell culture, 22Rv1) is given as “did not affect growth or viability”. Moreover, the “Slope (best-fit, linear regression of growth curve)” value in test [1] (22Rv1, 0.5 µM) is 0,1041; in test [1] (22Rv1, 5 µM), 0,1046; in test [1] (22Rv1, 10 µM) it was 0,1034; in test [1] (22Rv1, 25 µM), 0,1066.

Values taken from PMC10464297, “Reevaluation of bromodomain ligands targeting BAZ2A” (Protein Science : A Publication of the Protein Society, 2023).
